Entries after “also recorded” stand apart in the source; their conditions may differ.
Experiments:
PPARα [1] = target: T1, PPARα (Homo sapiens, UniProt Q07869); assay: PPARα transcriptional activity in PPARα reporter Combo cells (luciferase); assay type: cell-based; parameters: host or cells: PPARα reporter Combo cells; details: for PPARα transcriptional activity (luciferase), FIG. 1 and 2: 50 μM, PPARα reporter Combo cells; for PPARα transcriptional activity (luciferase), FIG. 1 and 2 / dose dependent effect on PPARα transcriptional activity, FIG. 3: 36 h; for dose dependent effect on PPARα transcriptional activity, FIG. 3: various concentrations up to 100 μM
T1 sequence (Q07869 1-468): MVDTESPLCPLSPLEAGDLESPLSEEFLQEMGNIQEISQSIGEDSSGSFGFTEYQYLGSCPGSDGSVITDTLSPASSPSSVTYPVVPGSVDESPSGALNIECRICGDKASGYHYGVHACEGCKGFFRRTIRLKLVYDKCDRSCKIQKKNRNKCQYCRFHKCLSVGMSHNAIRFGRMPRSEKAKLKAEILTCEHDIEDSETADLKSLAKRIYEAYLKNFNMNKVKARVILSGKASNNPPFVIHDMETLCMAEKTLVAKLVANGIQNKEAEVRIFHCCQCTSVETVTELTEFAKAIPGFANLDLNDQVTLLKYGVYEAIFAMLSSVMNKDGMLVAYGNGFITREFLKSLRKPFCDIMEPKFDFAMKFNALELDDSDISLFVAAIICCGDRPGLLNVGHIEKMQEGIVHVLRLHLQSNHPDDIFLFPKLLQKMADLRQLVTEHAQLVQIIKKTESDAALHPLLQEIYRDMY
Protocol: The PPARα reporter Combo cells were treated with the indicated compounds at concentrations of 50 μM for 36 h, and then luciferase activities were measured.
The PPARα reporter Combo cells were treated with indicated compounds at concentrations of 50 μM for 36 h, and then luciferase activities were measured.
Various phenylquinoline derivatives of the present disclosure were tested for their effects on PPARα transcriptional activity in PPARα reporter Combo cells, including NCI8 and compounds 1-13 as disclosed herein, as measured against the effect of Feno-FA.
Cells were treated with various compounds at concentrations of 50 μM for 36 h, after which luciferase activities were measured. […] Cells were treated with various compounds at concentrations of 50 μM for 36 h, after which luciferase activities were measured. […] The experiments were repeated as various increasing concentrations comparing the effects of Feno-FA (FIG. 4), NCI8 (FIG. 5), compound 2 (FIG. 6), and compound 8 (FIG. 7).

[2] = tested on: human retinal capillary endothelial cells (HRCEC); assay: endothelial cell migration in HRCEC; assay type: cell-based
[3] = tested on: human retinal capillary endothelial cells (HRCEC); assay: tube formation in HRCEC; assay type: cell-based
[4] = tested on: human retinal Müller cells (MIO-M1); assay: TUNEL, palmitate-induced apoptosis in Müller cells; assay type: cell-based
[5] = tested on: retinal precursor cells (R28); assay: TUNEL, palmitate-induced apoptosis in retinal precursor cells; assay type: cell-based
ARPE19 cells = assay: palmitate-induced cell death in ARPE19 cells; assay type: cell-based
retinal leukostasis = assay: leukostasis assay in oxygen-induced retinopathy (OIR) model; assay type: in vivo, C57BL/6 mice; details: OIR mice, 10 mg/kg/day i.p. P12 to P16, examined at P17, vs vehicle
ICAM-1, MCP-1, TNF-α = assay: retinal levels of inflammatory factors by Western blotting in OIR model; assay type: in vivo, C57BL/6 mice; details: OIR mice, 10 mg/kg/day i.p. P12 to P16, Western blotting
VEGF = assay: expression of VEGF; details: potency similar to or higher than fenofibrate
[6] = tested on: retinal capillaries and pericytes; assay: retinal capillary degeneration and pericyte loss in streptozotocin-induced diabetic rats; assay type: in vivo; details: i.p., 10 mg/kg/day, 3 weeks
PPARα [7] = target: T1, PPARα; assay: luciferase-based promoter assay of PPARα activation
Protocol: The activation of PPARα by NCI8 was measured by luciferase-based promoter assay. […] Student's T-test was used for statistical analysis.

COc1ccc(-c2cc(C(=O)O)c3ccccc3n2)cc1OC [Compound 2, 2-(3,4-dimethoxyphenyl) quinoline-4-carboxylic acid]
PPARα transcriptional activity (luciferase), FIG. 1 and 2 (PPARα [1]): highest agonistic activity
PPARα transcriptional activity at various increasing concentrations, FIG. 4-7 (PPARα [1]; compared with Feno-FA, NCI8, compound 8): greatest agonistic activity
dose dependent effect on PPARα transcriptional activity, FIG. 3 (PPARα [1]): greatest activity

O=C(O)c1cc(-c2ccccc2O)nc2ccccc12 [Compound 8, 2-(2-hydroxyphenyl) quinoline-4-carboxylic acid]
PPARα transcriptional activity (luciferase), FIG. 1 and 2 (PPARα [1]): highest agonistic activity
dose dependent effect on PPARα transcriptional activity, FIG. 3 (PPARα [1]): greatest activity

Cc1c(Cl)ccc2c(C(=O)O)cc(-c3ccccc3)nc12 [NCI8, 7-chloro-8-methyl-2-phenylquinoline-4-carboxylic acid]
HRCEC migration [2]: significantly inhibited
concentration range of concentration-dependent inhibition of endothelial cell migration [2]: 50 to 200 µM
HRCEC tube formation [3]: significantly inhibited; also recorded: higher potency than fenofibric acid
palmitate-induced apoptosis of human retinal Müller cells [4]: protective effect
palmitate-induced apoptosis of retinal precursor cells [5]: protective effect
RPE cell death induced by palmitate (ARPE19 cells): protection of RPE cells from cell death
number of adherent leukocytes in the retinal vasculature (retinal leukostasis) (retinal leukostasis): decreased; also recorded: significantly reduced
retinal level of ICAM-1 (ICAM-1, MCP-1, TNF-α): downregulated; also recorded: significantly down-regulated
retinal level of MCP-1 (ICAM-1, MCP-1, TNF-α): downregulated; also recorded: significantly down-regulated
retinal level of TNF-α (ICAM-1, MCP-1, TNF-α): downregulated; also recorded: significantly down-regulated
expression of VEGF (VEGF): inhibited
pericyte loss (pericyte numbers) ([6]; diabetic rats): ameliorated; also recorded: significantly increased
retinal capillary degeneration (numbers of acellular capillaries in the retina) ([6]; streptozotocin-induced diabetic rats): ameliorated; also recorded: decreased
EC50 (PPARα [7]): 49.9 µM
PPARα transcriptional activity (PPARα [7]; luciferase-based promoter assay): activated PPARα transcriptional activity in a concentration-dependent manner; also recorded: Potent effects in enhancing transcriptional activities of PPARα
